The results in this text go back to US9487492B2, “Dibenzothiazepine derivatives and their use in the treatment of CNS disorders” (NUMEDICUS LIMITED, priority 2011, dated 2016).

The nature of series [1]: PPB (compound bound to proteins). The following applies: plasma.
Series [2] relates to hippocampal CA1 pyramidal neurones. Kind of series: Whole cell recording of EPSC amplitude in hippocampal slices. It counts as cell-based, male Sprague-Dawley rats. How it is done: The stimulatory activity of the compounds of the invention on the central nervous system was evaluated in-vitro by recording the excitatory postsynaptic current (EPSC) amplitude in stimulated hippocampal CA1 pyramidal neurones from slices of male Sprague-Dawley rats, as described in more detail hereinafter in the Experimental and Preparations section.
Male Sprague-Dawley rats, 15 to 20 days old at the time of surgery, were used in this study. On the day of the experiment, animals were terminally anaesthetized using isofluorane, cervically dislocated, and decapitated. The brain was removed and 400 μm thick parasagittal brain slices prepared using a Leica VT1000S. Slices were maintained in an artificial cerebrospinal fluid (ACSF) of the following composition (in mM, aqueous solution): 127 NaCl; 1.9 KCl; 1.2 KH2PO4; 2.4 CaCl2; 1.3 MgCl2; 26 NaHCO3; and, 10 D-glucose, bubbled with a mixture of 95% O2/5% CO2, at room temperature for 1 hour after slicing before commencing electrophysiological recordings. […]

Series [3] can be described thus: Metabolic stability in cryopreserved beagle dog hepatocytes. It counts as in vitro ADME. The following applies: beagle, dog, cryopreserved hepatocytes, test compound 1 μM, 3 million cells per ml, 90 min incubation. How it is done: (§1) The metabolic stability of the compounds of the invention was evaluated in-vitro using cryopreserved beagle dog hepatocytes, as described in more detail hereinafter in the Experimental and Preparations section.
(§2) The test compound (1 μM) was incubated with cryopreserved beagle dog hepatocytes at 3 million cells per ml, in 300 μL of Leibovitz's medium for a total period of 90 min. During this period, 25 μL aliquots were taken at 1, 10, 30, 50, 70 & 90 minutes and quenched in acetonitrile. Quenched samples were centrifuged to pellet the precipitated protein, and supernatant removed for LC-MS-MS (high performance liquid chromatography coupled to a tandem mass spectrometer) analysis to quantify the amount of the parent test compound remaining. The first order elimination rate constant (k) was determined from a plot of natural log of parent test compound remaining versus time, and used to calculate a metabolic stability half-life (T1/2), where T1/2=Ln2/k where k=elimination rate constant.

Series [4] has as its system cryopreserved beagle dog hepatocytes. The series is described as above. It counts as in vitro ADME. The following applies: Example 2 versus tianeptine. How it is done: as §1, §2

A word on the fraction unbound: it is free concentration divided by total concentration. Lower therefore signals little free substance. For orientation: half-life means the time needed for the level to fall by half in the phase considered. In series [1], `CN1c2ccccc2C(NCCCCOCC(=O)O)c2ccc(Cl)cc2S1(=O)=O` (stereo not drawn) [Example 2, 2-(4-((3-chloro-6-methyl-5,5-dioxido-6,11-dihydrodibenzo[c,f][1,2]thiazepin-11-yl)amino)butoxy)acetic acid] registered a fraction unbound of 0.18. In addition, in series [2] (10 μM bath applied, percentage of the control, mean±S.E.M (n=6)), the “increase of control EPSC amplitude” value was 224.67±34.27%. Also, the “effect on excitatory transmission in CA1 region of hippocampus (FIG. 1)” value in series [2] (representative electrophysiological recording, 10 μM) is recorded as “facilitates excitatory transmission”. The same molecule registered a half-life at 1 μM in series [3] (T1/2=Ln2/k) of 34.4 h. The hepatocyte CLint at 1 μM in series [3] (read-out: Clint (intrinsic clearance)) amounted to 0.3 µL/min/1e6 cells. The “metabolic stability half life compared with tianeptine” value in series [4] is “more than 10 times”.
